Results reported in PubChem BioAssay (NCI).
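Following 48 hours of exposure in 96-well plates, responses at five concentrations were used to interpolate endpoints linearly. TGI: total growth inhibition.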

Columns and labels:
Assay in all cases: inhibition of tumour cell growth, NCI panel, 48 h
[1] = tested on: OVCAR-8 ovarian
[2] = tested on: A549 NSCLC
[3] = tested on: HOP-62 NSCLC
[4] = tested on: IGROV1 ovarian
[5] = tested on: M14 melanoma
[6] = tested on: NCI-H460 lung
[7] = tested on: HCC-2998 colon
[8] = tested on: KM20L2 colon
[9] = tested on: HT29 colon
[10] = tested on: HOP-92 NSCLC
[11] = tested on: TK-10 renal
[12] = tested on: SK-MEL-2 melanoma
[13] = tested on: DMS 114 small cell lung
[14] = tested on: DMS 273 small cell lung
[15] = tested on: NCI-H522 lung
[16] = tested on: COLO 205 colon
[17] = tested on: SF-268 CNS
[18] = tested on: UACC-62 melanoma
[19] = tested on: SF-295 CNS
[20] = tested on: UACC-257 melanoma
[21] = tested on: SF-539 CNS
[22] = tested on: SW-620 colon
[23] = tested on: HCT-15 colon
[24] = tested on: SK-MEL-28 melanoma
[25] = tested on: DLD-1 colon
[26] = tested on: CAKI-1 renal
[27] = tested on: M19-MEL melanoma
[28] = tested on: MOLT-4 leukemia
[29] = tested on: OVCAR-5 ovarian
[30] = tested on: HCT-116 colon
[31] = tested on: OVCAR-4 ovarian
[32] = tested on: U251 CNS
[33] = tested on: K-562 leukemia
[34] = tested on: CCRF-CEM leukemia
[35] = tested on: 786-0 renal
[36] = tested on: RPMI-8226 leukemia
[37] = tested on: SK-MEL-5 melanoma
[38] = tested on: KM12 colon
[39] = tested on: HL-60(TB) leukemia
[40] = tested on: ACHN renal
[41] = tested on: SR leukemia
[42] = tested on: NCI-H23 lung
[43] = tested on: SNB-75 CNS
[44] = tested on: LXFL 529 NSCLC
[45] = tested on: MALME-3M melanoma
[46] = tested on: OVCAR-3 ovarian

Compound: COP(=O)(OC)C(=NCc1ccccc1)NNc1ccc([N+](=O)[O-])cc1
- TGI [1]: > 100 µM
- TGI [2]: > 100 µM
- TGI [3]: 72.1 µM
- TGI [4]: > 100 µM
- TGI [5]: 53.7 µM
- TGI [6]: 79.3 µM
- TGI [7]: > 100 µM
- TGI [8]: > 100 µM
- TGI [9]: > 100 µM
- TGI [10]: 54.4 µM
- TGI [11]: > 100 µM
- TGI [12]: 52.9 µM
- TGI [13]: 76 µM
- TGI [14]: > 100 µM
- TGI [15]: 38.6 µM
- TGI [16]: > 100 µM
- TGI [17]: 84.9 µM
- TGI [18]: > 100 µM
- TGI [19]: 67.4 µM
- TGI [20]: 51.1 µM
- TGI [21]: 44.7 µM
- TGI [22]: > 100 µM
- TGI [23]: > 100 µM
- TGI [24]: > 100 µM
- TGI [25]: > 100 µM
- TGI [26]: > 100 µM
- TGI [27]: > 100 µM
- TGI [28]: 74.8 µM
- TGI [29]: > 100 µM
- TGI [30]: 69 µM
- TGI [31]: 90.7 µM
- TGI [32]: 66.9 µM
- TGI [33]: > 100 µM
- TGI [34]: 55.1 µM
- TGI [35]: > 100 µM
- TGI [36]: 57.1 µM
- TGI [37]: 34.8 µM
- TGI [38]: > 100 µM
- TGI [39]: 46 µM
- TGI [40]: > 100 µM
- TGI [41]: 56.9 µM
- TGI [42]: 61.4 µM
- TGI [43]: 37.6 µM
- TGI [44]: > 100 µM
- TGI [45]: > 100 µM
- TGI [46]: > 100 µM
